Results as given in PubChem BioAssay AID1963973 (Molecular Pharmacology Branch, DTP, NCI, 2024).

System: 883617-216-R-J1-PDC tumor spheroids, viability
Test: Anticancer human tumor 883617-216-R-J1-PDC patient-derived bladder carcinoma cell line growth inhibition [PI3K]
Details: hits give low values, spheroids with HUVEC and MSC; active = viability on the fitted dose curve at most 10% of control; inactive = the rest
Outline: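 Targeted small molecules plus PI3K inhibitors, half-log dose series from Cmax (default top 10 microM), were applied to heterotypic spheroids of cancer cells with HUVEC and MSCs. Viability indicated growth inhibition.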

Measured: viability, T/C
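Note: spheroids exposed to agents for 7 days before the viability read.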

CCN1CCN(Cc2ccc(Nc3ncc(F)c(-c4cc(F)c5nc(C)n(C(C)C)c5c4)n3)nc2)CC1
inactive: compound 0.00316 µM 92% [middle of 4 runs] | compound 0.01 µM 78.9% [middle of 4 runs] | compound 0.0316 µM 75.5% [middle of 4 runs] | compound 0.1 µM 59% [middle of 4 runs] | compound 0.316 µM 56.6% [middle of 4 runs] | compound 1 µM 47.2% [middle of 4 runs]
